One experiment has as its target T1, CYP3A4 (Homo sapiens, UniProt P08684).
T1 construct: incubated with human liver microsomes and test compounds of different concentrations; from tissue; host or cells: human liver microsomes
Nature of the experiment: CYP450 enzyme inhibition, human liver microsomes, CYP3A4. In kind it is in vitro ADME. How it is done:
(§1) The purpose of this study was to evaluate the effect of the test compound on the activity of five isoenzymes (CYP1A2, CYP2C9, CYP2C19, CYP2D6 and CYP3A4) of human liver microsomal cytochrome P450 (CYP) by using an in vitro testing system. The specific probe substrates of CYP450 isoenzymes were incubated with human liver microsomes and test compounds of different concentrations, and reduced nicotinamide adenine dinucleotide phosphate (NADPH) was added to initiate the reaction. After the completion of the reaction, the sample was treated and liquid chromatography-tandem mass spectrometry (LC-MS/MS) was used to quantitatively detect metabolites produced by specific substrates, changes in CYP enzyme activity were determined, and IC50 value was calculated to evaluate the inhibitory potential of the test compound on each CYP enzyme subtype.

The target of another experiment is T2, CYP1A2 (Homo sapiens, UniProt P05177).
T2 construct: incubated with human liver microsomes and test compounds of different concentrations; from tissue; host or cells: human liver microsomes
T2 sequence (P05177 1-516): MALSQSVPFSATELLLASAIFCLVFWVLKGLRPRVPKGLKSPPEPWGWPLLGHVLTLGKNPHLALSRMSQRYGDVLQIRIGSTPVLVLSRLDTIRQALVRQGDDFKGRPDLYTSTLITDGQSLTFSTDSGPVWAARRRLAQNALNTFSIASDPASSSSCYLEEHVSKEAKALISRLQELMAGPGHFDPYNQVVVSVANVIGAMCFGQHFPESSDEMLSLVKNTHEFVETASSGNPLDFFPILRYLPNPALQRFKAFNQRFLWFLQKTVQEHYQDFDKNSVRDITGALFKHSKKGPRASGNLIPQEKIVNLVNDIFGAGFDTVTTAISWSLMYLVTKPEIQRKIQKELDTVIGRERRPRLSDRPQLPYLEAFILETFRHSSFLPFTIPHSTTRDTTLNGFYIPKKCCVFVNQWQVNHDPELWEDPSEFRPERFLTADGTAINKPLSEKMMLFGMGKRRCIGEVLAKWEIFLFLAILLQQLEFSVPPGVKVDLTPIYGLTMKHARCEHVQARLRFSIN
Nature of the experiment: CYP450 enzyme inhibition, human liver microsomes, CYP1A2. Format: in vitro ADME. How it is done: as §1

For another experiment, the target named is T3, CYP2C9 (Homo sapiens, UniProt P11712).
T3 construct: incubated with human liver microsomes and test compounds of different concentrations; from tissue; host or cells: human liver microsomes
T3 sequence (P11712 whole entry): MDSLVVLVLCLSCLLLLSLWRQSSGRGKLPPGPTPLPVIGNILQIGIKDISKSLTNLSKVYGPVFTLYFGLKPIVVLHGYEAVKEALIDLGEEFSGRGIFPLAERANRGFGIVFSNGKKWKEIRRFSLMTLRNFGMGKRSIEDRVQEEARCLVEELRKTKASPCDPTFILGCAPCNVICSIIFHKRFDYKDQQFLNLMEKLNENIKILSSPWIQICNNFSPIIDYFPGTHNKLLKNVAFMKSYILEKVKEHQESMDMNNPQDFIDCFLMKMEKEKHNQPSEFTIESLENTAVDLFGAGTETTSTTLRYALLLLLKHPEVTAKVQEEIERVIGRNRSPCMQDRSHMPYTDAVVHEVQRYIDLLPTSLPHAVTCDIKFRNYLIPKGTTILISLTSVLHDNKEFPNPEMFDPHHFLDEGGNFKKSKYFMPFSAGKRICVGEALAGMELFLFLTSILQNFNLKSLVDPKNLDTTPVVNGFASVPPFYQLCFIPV
Nature of the experiment: CYP450 enzyme inhibition, human liver microsomes, CYP2C9. Format: in vitro ADME. How it is done:
as §1
Background: Liver microsomes are a subcellular fraction often used to study metabolism.

The target of the next experiment is T4, CYP2C19 (Homo sapiens, UniProt P33261).
T4 construct: incubated with human liver microsomes and test compounds of different concentrations; from tissue; host or cells: human liver microsomes
As to the kind of experiment: CYP450 enzyme inhibition, human liver microsomes, CYP2C19. Format: in vitro ADME. How it is done: as §1

Experiment [1] has as its system rabbit skeletal muscle myosin. Nature of the experiment: Inhibition of hydrolysis of ATP by rabbit skeletal muscle myosin. Format: biochemical. How it is done: The purpose of this test was to evaluate the ability of compounds to inhibit the hydrolysis of ATP by rabbit skeletal muscle myosin. The determination method was as follows:
• Preformed F-actin filaments (#AKF99-B, Cytoskeleton) were diluted to 1 mg/mL with Reaction buffer (25 mM Tris-HCL, pH 7.5+35 mM KCl+0.1 mM EGTA+1 mM MgCl2); • Rabbit myosin (#MYO2-A, Cytoskeleton) was diluted to 0.1 mg/mL with Resuspension buffer (15 mM Tris-HCL, PH7.5+0.2 M KCl+1 mM MgCl2); • ATP (#BSA04-001, Cytoskeleton) was diluted to 3 mM working solution with 15 mM Tris-HCL (PH=7.5);
• adding 13 μL reaction buffer+12 μL F-actin to actin control wells; • adding 10 μL reaction buffer+12 μL F-actin+3 μL myosin II to positive control wells; • adding 10 μL of compound working solution+12 μL of F-actin+3 μL of myosin II to the compound wells; • adding 5 μL of ATP working solution to all test wells to start the reaction, and simultaneously adding a sample to the Pi standard wells according to the instruction (#BK054, Cytoskeleton); • gently mixing and accurately incubating at 37° C. for 60 min; • adding 70 μL of CytoPhos Reagent (#BK054, Cytoskeleton) to each well and incubating for 10 min to stop the reaction.
• the OD value of each well was detected at 650 nm using the endpoint method. The standard curve was fitted according to Pi concentration and OD value, and the Pi concentration of each test well was obtained. Inhibition (%)=(Pi positive control well-Pi test well)/Pi positive control well*100%. The Inhibition %-[…] curve was fitted with Graphpad Prism 8 software, and IC50 was calculated.

For another experiment, the target named is T5, CYP2D6 (Homo sapiens, UniProt P10635).
T5 construct: incubated with human liver microsomes and test compounds of different concentrations; from tissue; host or cells: human liver microsomes
T5 sequence (P10635 whole entry): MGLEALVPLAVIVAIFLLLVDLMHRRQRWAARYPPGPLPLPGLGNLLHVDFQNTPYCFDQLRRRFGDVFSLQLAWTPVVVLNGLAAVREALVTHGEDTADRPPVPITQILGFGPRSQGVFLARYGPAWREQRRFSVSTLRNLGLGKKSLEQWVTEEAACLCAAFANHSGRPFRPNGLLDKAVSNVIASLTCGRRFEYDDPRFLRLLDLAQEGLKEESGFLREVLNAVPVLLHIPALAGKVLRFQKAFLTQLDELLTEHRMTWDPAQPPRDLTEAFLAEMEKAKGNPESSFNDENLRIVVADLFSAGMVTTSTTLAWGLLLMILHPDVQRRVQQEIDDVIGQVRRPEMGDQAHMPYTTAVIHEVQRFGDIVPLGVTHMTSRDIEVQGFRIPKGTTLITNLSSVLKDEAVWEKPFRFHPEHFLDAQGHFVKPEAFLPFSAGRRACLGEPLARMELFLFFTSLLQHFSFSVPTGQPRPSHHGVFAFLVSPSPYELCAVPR
As to the kind of experiment: CYP450 enzyme inhibition, human liver microsomes, CYP2D6. Format: in vitro ADME. How it is done:
as §1

Another experiment addresses T6, smooth muscle myosin S1 (Gallus gallus, UniProt P10587).
T6 construct: purchased Cytoskeleton #CS-MYS05
As to the kind of experiment: Inhibition of hydrolysis of ATP by smooth muscle myosin S1 fragments. The following applies: for inhibition at 100 µM: 100 μM compound. In kind it is biochemical. How it is done:
The purpose of this test was to evaluate the ability of compounds to inhibit the hydrolysis of ATP by smooth muscle myosin Si fragments. The determination method was as follows: • 1. Solution formulation • F-actin polymer: Cardiac Actin powder (#CS-AD99, Cytoskeleton) was dissolved in a buffer (5 mM Pipes-KOH solution, PH=7.0, containing 100 μM ATP and 500 μM DTT) to form a 2 mg/mL solution and the solution was left at room temperature for 30 min; then 2 mM MgCl2 and 2 mM EGTA were added and the obtained system was left at room temperature for 40 min; • Smooth muscle SI fragment (#CS-MYS05, Cytoskeleton) was diluted with a pre-cooled PM12 buffer containing 1 mM DTT (12 mM Pipes-KOH solution, PH=7.0, containing 2 mM MgCl2) to form a 0.7 mg/mL solution; • ATP (#BSA04-001, Cytoskeleton) was diluted to 5 mM working solution with 15 mM Tris-HCL (PH=7.5); • 2. […] Experimental steps: • adding 10 μL of compound working solution+6 μL of F-actin polymer+4 μL of Smooth muscle Si fragment solution to the compound wells; • adding 10 μL of PM12 buffer containing DMSO+6 μL of F-actin polymer+4 μL of Smooth muscle S1 fragment solution to positive control wells; • adding 10 μL of PM12 buffer containing DMSO+6 μL of F-actin polymer+4 μL of PM12 buffer to negative control wells; • adding […] of 5 mM ATP working solution to all test wells to start the reaction, gently mixing and incubating at 37° C. for 20 min; • after the reaction was completed, taking 6 μLL of reaction liquid, adding 24 μL of PM12 buffer for 5-fold dilution, then detecting the content of the product Pi with a phosphate kit (#BK054, Cytoskeleton); • adding a standard according to the instructions, adding 70 μL of CytoPhos Reagent (#BK054, Cytoskeleton) to all wells and incubating at room temperature for 10 min before detection. • 4. Detection: • the OD value of each well was detected at 650 nm. The standard curve was fitted according to Pi standard concentration and OD value, and the Pi concentration of each test well was obtained. Inhibition (%)=(positive control well−test well)/positive control well*100%.

Another experiment has as its target T7, cardiac myosin SII (Bos taurus, UniProt Q9BE39).
T7 construct: purchased Cytoskeleton #MYO3-A
As to the kind of experiment: Inhibition of hydrolysis of ATP by cardiac myosin SII. Format: biochemical. To be noted: 100 μM compound. How it is done:
The purpose of this test was to evaluate the ability of compounds to inhibit the hydrolysis of ATP by cardiac myosin SII. The determination method was as follows: • 1. Solution formulation: • Preformed F-actin filaments (#AKF99-B, Cytoskeleton) were diluted to 1 mg/mL with Reaction buffer (15 mM Tris-HCL. PH7.5+10 mM KCl+0.1 mM EGTA+2 mM MgCl2); • Cardiac Muscle myosin (#MYO3-A, Cytoskeleton) was diluted to 1 mg/mL with Resuspension buffer (15 mM Tris-HCL, PH7.5+0.2M KCl+1 mM MgCl2); • ATP (#BSA04-001, Cytoskeleton) was diluted to 3 mM working solution with 15 mM Tris-HCL (PH=7.5); • 2. Formulation of working solution of compounds: the final compound concentration was 100 μM • 3. Experimental steps: • adding 10 μL of compound working solution+12 μL of Preformed F-actin filaments+3 μL of Cardiac Muscle myosin to the compound wells; • adding 10 μL of reaction buffer containing DMSO+12 μL Preformed F-actin filaments +3 μL Cardiac Muscle myosin to positive control wells; • adding 10 μL of reaction buffer containing DMSO+12 μL Preformed F-actin filaments +3 μL Resuspension buffer to negative control wells; • adding 5 μL of 3 mM ATP working solution to all test wells to start the reaction, gently mixing and incubating at 37° C. for 2 h; • after the reaction was completed, taking 6 μL of reaction liquid, adding 24 μL of reaction buffer for 5-fold dilution, then detecting the content of the product Pi with a phosphate kit (#BK054, Cytoskeleton); • adding a sample to Pi standard wells according to the instructions; • adding 70 μL of CytoPhos Reagent (#BK054, Cytoskeleton) to each well and incubating at room temperature for 10 min before detection. • 4. Detection: • the OD value of each well was detected at 650 nm. The standard curve was fitted according to Pi standard concentration and OD value, and the Pi concentration of each test well was obtained. Inhibition (%)=(positive control well−test well)/positive control well*100%.

Setting [2] is: inhibition of hydrolysis of ATP, class symbols, read-out: Rabbit skeletal muscle myosin (IC50).
Where [3] appears, read: read-out: IC50 for inhibition of hydrolysis of ATP by rabbit skeletal muscle myosin.

Where two headings read alike, the source gives them in different places.

By IC50 is commonly meant the concentration that inhibits the measured activity by half. Broadly, the inhibition is the relative decrease from the control value, in per cent.

T6 sequence (P10587 84-789 limits assumed): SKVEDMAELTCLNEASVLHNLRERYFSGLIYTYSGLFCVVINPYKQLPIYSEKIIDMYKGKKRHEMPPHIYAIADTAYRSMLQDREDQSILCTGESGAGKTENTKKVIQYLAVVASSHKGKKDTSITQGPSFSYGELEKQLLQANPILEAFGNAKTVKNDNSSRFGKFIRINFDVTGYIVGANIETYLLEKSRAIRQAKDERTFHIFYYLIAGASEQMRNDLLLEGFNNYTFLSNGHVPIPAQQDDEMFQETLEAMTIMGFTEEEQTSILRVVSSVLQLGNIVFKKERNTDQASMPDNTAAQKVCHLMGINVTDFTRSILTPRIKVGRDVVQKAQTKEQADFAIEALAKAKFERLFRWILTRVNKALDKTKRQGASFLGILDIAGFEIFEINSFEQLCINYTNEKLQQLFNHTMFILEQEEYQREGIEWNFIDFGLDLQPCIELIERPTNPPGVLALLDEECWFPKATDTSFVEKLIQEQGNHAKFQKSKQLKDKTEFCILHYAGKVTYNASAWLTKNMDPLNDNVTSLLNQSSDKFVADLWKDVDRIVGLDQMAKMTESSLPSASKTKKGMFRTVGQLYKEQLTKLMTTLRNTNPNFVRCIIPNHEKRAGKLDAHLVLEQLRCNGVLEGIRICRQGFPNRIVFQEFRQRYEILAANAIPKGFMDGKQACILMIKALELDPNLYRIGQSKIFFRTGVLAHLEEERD
T6 sequence (P02607 whole entry partner): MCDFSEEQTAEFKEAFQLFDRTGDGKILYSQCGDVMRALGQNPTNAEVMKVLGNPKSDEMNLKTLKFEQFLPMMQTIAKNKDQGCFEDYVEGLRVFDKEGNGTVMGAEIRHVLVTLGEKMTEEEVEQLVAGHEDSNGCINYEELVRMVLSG
T7 sequence (Q9BE39 whole entry): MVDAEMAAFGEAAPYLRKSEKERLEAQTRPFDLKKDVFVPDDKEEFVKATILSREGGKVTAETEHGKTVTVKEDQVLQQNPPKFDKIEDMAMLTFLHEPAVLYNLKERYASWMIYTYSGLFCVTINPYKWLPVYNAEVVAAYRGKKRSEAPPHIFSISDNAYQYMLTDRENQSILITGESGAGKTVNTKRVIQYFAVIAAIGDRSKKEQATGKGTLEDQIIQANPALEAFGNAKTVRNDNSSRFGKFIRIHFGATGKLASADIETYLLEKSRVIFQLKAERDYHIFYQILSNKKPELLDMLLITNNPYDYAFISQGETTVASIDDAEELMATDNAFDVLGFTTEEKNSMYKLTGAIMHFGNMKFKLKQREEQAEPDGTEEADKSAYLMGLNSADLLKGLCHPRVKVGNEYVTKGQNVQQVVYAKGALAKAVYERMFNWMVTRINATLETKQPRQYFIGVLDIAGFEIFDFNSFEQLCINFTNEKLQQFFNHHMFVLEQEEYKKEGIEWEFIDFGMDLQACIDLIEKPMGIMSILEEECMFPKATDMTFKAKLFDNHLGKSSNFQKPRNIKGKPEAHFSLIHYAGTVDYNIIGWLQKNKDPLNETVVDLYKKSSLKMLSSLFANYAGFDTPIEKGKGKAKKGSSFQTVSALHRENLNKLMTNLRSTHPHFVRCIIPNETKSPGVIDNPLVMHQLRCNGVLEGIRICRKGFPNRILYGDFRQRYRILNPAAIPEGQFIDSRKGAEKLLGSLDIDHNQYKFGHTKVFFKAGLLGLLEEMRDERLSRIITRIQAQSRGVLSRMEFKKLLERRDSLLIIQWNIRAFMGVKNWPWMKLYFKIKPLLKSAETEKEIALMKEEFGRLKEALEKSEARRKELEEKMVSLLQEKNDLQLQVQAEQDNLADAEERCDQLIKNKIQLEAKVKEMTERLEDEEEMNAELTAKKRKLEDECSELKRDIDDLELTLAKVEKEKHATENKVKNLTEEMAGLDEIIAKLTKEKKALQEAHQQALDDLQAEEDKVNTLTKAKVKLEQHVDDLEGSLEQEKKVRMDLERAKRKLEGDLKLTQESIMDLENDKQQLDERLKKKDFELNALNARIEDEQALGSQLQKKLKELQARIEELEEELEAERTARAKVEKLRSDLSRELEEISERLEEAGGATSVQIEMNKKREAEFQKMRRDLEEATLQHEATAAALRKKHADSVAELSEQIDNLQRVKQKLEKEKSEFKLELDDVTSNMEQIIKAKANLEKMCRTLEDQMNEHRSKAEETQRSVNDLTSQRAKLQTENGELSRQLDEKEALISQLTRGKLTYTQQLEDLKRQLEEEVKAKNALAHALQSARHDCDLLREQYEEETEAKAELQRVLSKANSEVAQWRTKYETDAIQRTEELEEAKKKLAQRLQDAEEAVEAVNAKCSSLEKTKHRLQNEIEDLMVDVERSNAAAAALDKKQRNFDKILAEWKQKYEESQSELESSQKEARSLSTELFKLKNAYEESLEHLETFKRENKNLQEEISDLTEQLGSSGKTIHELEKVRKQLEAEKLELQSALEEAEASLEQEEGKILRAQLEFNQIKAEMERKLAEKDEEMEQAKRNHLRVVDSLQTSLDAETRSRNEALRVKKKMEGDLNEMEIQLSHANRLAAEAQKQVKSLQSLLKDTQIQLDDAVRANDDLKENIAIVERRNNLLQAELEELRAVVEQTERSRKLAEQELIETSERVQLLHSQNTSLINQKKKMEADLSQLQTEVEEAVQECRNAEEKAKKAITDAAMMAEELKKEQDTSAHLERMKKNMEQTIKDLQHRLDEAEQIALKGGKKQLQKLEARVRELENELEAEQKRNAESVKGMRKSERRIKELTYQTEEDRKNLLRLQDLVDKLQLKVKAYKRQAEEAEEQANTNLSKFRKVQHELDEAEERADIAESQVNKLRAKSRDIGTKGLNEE
T7 sequence (P85100 whole entry partner): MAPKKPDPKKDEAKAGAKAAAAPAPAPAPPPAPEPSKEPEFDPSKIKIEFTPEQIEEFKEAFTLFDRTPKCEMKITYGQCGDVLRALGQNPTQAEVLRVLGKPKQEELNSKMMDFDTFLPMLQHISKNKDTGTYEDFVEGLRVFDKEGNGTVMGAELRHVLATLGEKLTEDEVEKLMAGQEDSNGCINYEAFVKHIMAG
T7 sequence (Q3SZE5 whole entry partner): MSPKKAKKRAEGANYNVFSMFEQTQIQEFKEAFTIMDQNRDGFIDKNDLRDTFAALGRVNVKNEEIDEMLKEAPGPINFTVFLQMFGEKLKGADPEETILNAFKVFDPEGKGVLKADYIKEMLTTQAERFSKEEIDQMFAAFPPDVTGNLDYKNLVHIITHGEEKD
T1 sequence (P08684 whole entry): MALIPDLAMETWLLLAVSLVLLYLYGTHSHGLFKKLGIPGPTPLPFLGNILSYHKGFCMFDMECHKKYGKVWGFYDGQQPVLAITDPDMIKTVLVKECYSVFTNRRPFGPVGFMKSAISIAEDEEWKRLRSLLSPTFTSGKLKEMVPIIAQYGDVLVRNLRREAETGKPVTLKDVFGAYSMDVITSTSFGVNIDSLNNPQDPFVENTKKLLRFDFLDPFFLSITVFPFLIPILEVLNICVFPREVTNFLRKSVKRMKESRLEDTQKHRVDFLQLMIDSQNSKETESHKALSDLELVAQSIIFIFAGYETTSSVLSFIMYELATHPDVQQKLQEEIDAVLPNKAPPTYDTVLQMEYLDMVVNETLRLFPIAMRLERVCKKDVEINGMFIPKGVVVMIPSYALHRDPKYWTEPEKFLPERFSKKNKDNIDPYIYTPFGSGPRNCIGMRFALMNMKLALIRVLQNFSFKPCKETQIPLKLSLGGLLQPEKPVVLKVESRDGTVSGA

With `O=c1ccc(-c2cnc(O[C@H]3CCOC3)nc2)nn1Cc1ccc2c(c1)CC2` [Compound 106], the IC50 against CYP3A4 is greater than 30 µM; on CYP1A2, greater than 30 µM; against CYP2C9, greater than 30 µM; at CYP2C19 it was greater than 30 µM; in experiment [1] (setting [2]), less than 2500 nM; in experiment [1] (setting [3]) it was 200 nM. The same molecule displayed an IC50 on CYP2D6 greater than 30 µM.

For the molecule `O=c1ccc(-c2cnc(OCC(F)F)nc2)nn1Cc1cc(F)c2c(c1)CCC2` [Compound 74], the inhibition at 100 µM at smooth muscle myosin S1 was 5.3%; against cardiac myosin SII, 15.8%. Besides, the IC50 in experiment [1] (setting [2]) is less than 2500 nM; in experiment [1] (setting [3]), 290 nM.

For the molecule `CN1CC(Oc2ncc(-c3ccc(=O)n(Cc4ccc5c(c4)CC5)n3)cn2)C1` [Compound 104], the inhibition at 100 µM at smooth muscle myosin S1 came to 20.7%; at cardiac myosin SII, 8.9%. Further, the half-maximal inhibitory concentration (IC50) in experiment [1] (setting [2]) was less than 2500 nM; in experiment [1] (setting [3]) it was 800 nM.

Take `O=C1CCc2cc(F)c(Cn3nc(-c4cnc(OCC(F)(F)F)nc4)ccc3=O)cc21` [Compound 136]: the results for the inhibition at 100 µM at smooth muscle myosin S1 and at cardiac myosin SII were -4% and -7%, respectively. Besides, in experiment [1] (setting [2]), the IC50 is less than 2500 nM.

For `O=c1ccc(-c2cnc(OCC3CC3(F)F)nc2)nn1Cc1ccc2c(c1)CCC2` (stereo not shown) [Compound 81], the inhibition at 50 µM on smooth muscle myosin S1 (@ 50 μM) worked out at 10.9%. In addition, the inhibition at 100 µM on cardiac myosin SII is -5.6%. In experiment [1] (setting [2]), the half-maximal inhibitory concentration (IC50) was less than 2500 nM.

`O=c1ccc(-c2cnc(OCC(F)(F)F)nc2)nn1Cc1cc(F)c2c(c1)CCC2` [Compound 73]: the results for the inhibition at 100 µM against smooth muscle myosin S1 and against cardiac myosin SII were -3% and 10.2%, respectively. Further, the IC50 in experiment [1] (setting [2]) was less than 2500 nM; in experiment [1] (setting [3]), 550 nM.
